Experimental data: US10597396B2, “Beta-lactamase inhibitors” (Novartis AG, priority 2016, dated 2020)
Read-outs that look alike come from different tables or passages of the source.

How the values were obtained:
Type in all cases: cell-based
E. coli (OXA-18) = test: microbe, parasite or virus in culture; details: for MIC: Escherichia coli
Method: (§1) MICs were determined by the broth microdilution method in accordance with Clinical and Laboratories Institute (CLSI) guidelines. In brief, fresh overnight bacterial cultures were suspended in sterile saline, and adjusted to a 0.5 McFarland turbidity standard. Bacterial suspensions were then diluted in cation adjusted Mueller-Hinton Broth (MHB II; BBL) to yield a final inoculum of approximately 5×10^5 colony-forming units (CFU)/mL. A master plate of antibiotics was prepared at a concentration equivalent to hundred-fold the highest desired final concentration in 100% dimethyl sulfoxide (DMSO). The master antibiotic plate was then diluted by serial twofold dilution with a multichannel pipette. The resulting dilution series of compounds were diluted 1:10 with sterile water or a solution of beta-lactamase inhibitor prepared at a concentration equivalent to eleven-fold the desired final concentration in deionized water leading to a 10% DMSO final concentration. A volume of 10 μL of the drug dilution series was transferred to 96-well assay plates. Assay plates were inoculated with 90 μL of bacterial suspensions and incubated at 35° C. for 20 hrs. The assay plates were read using a microtiter plate reader (Molecular Devices) at 600 nm as well as by visual observation with a reading mirror. The lowest concentration of the compound that prevented visible growth was recorded as the MIC.
(§2) Synergy or potentiation of beta-lactam antibiotics through inhibition of […] was assessed against an isogenic panel of E. coli strains, each expressing a unique beta-lactamase, and against clinical strains.
(§3) Construction of E. coli isogenic strains, NB27273-CDY0105 (OXA-18) and NB27273-CDY0048 (TEM-10). […] The gene encoding OXA-18 was then digested with XhoI and EcoRI and inserted into this vector, from which the gene for GIM-1 had been removed with XhoI and EcoRI.
These final vectors for expression of OXA-18 and TEM-10 were transformed into BW25113 pspB to generate strains NB27273-CDY0105 (expressing OXA-18) and NB27273-CDY0048 (expressing TEM-10).

E. coli (CTX-M-15) = test: microbe, parasite or virus in culture; details: for MIC: Escherichia coli
Method: as §1, §2
(§4) Strain NB27273 (BW25113 pspB::Km^r) was obtained from the Keio transposon insertion collection. The strain has the pspB gene replaced by a kanamycin resistance marker (BW25113 pspB::Km^r). This strain was cured of the transposon in pspB via FLP recombinase using published methodology. The resulting strain, BW25113 pspB, was used as a host for multicopy vectors expressing key beta-lactamases. Multicopy plasmids directing constitutive expression of beta-lactamases were established as follows: Synthetic, codon optimized genes encoding E. coli KPC-2, SHV-12 and CTX-M-15 beta-lactamases were made by DNA2.0 (Palo Alto, Calif.). Each of the synthetic fragments were designed to contain NotI and NcoI restriction sites at their termini, allowing ligation into a NotI/NcoI digested pET28a(+) derivative for protein expression. […] The codon optimized nucleotide sequences and relevant primer recognition information is shown below:
(§5) The PCR products were then digested with XhoI and EcoRI and ligated into similarly digested plasmid pAH63-pstS(BlaP). […] Therefore, expression of beta-lactamases from pAH63-pstS(BlaP) based constructs is constitutive and the signal sequence is provided to direct these proteins to the periplasm. […] These fragments were then digested with XbaI and EcoRI, and each was inserted into pBAD18-kan that had been digested with the same enzymes to generate multicopy vectors expressing KPC-2, SHV-12 and CTX-M-15, respectively. These vectors were transformed into BW25113 pspB to generate strains NB27273-CDY0033 (expressing KPC-2), NB27273-CDY0030 (expressing SHV-12), NB27273-CDY0034 (expressing CTX-M-15) and NB27273-CDY0036 (expressing AmpC). The pBAD18-kan vector also contains the TEM promoter region and signal sequence, (but lacks any intact beta-lactamase genes) and was transformed into BW25113 pspB using standard protocols to generate the control strain NB27273-CDY0026.

E. coli (SHV-12) = test: microbe, parasite or virus in culture; details: for MIC: Escherichia coli
Method: as §1, §2, §4, §5

E. coli (KPC-2) = test: microbe, parasite or virus in culture; details: for MIC: Escherichia coli
Method: as §1, §2, §4, §5

E. coli (TEM-10) = test: microbe, parasite or virus in culture; details: for MIC: Escherichia coli
Method: as §1, §2, §3
From this template DNA, three fragments were generated by PCR using the following primer pairs;
This fragment was then digested with XbaI and EcoRI and inserted into pBAD-kan which was also cut with the same enzymes. […]

E. coli (AmpC) = test: microbe, parasite or virus in culture; details: for MIC: Escherichia coli
Method: as §1, with “MIC. Performance of the assay was monitored by testing aztreonam against laboratory quality control strains in accordance with guidelines of the CLSI.” for “MIC.”
as §2
The gene encoding AmpC was PCR amplified from the genome of strain P. aeruginosa PAO1 (NB52019) (GenBank ID U5R279) using primer pair E252 (gccCTCGAGggcgaggccccggcggatcgc) (SEQ ID NO: 17) and E253 (tgaGAATTCtcagcgcttcagcggcacct) (SEQ ID NO: 18).
The PCR products were then digested with XhoI and EcoRI and ligated into similarly digested plasmid pAH63-pstS(BlaP). Plasmid pAH63-pstS(BlaP) is a derivative of plasmid pAH63 (J Bacteriol: 183(21): 6384-6393) made by cloning the TEM-1 (bla) promoter and signal peptide encoding region from plasmid pBAD (J Bacteriol. 1995 July 177(14):4121-30) into plasmid pAH63. This fragment was PCR amplified from pBAD using primer pair E192 (ttcaCTGCAGtgaacgttgcgaagcaacggC) (SEQ ID NO:19) and E194 (TCGAggatcctcgagagcaaaaacaggaaggcaaaatgccg) (SEQ ID NO:20), digested with PstI and BamHI and inserted into similarly digested plasmid pAH63. Therefore, expression of beta-lactamases from pAH63-pstS(BlaP) based constructs is constitutive and the signal sequence is provided to direct these proteins to the periplasm. […]

[1] = system: Enterobacter cloacae NB25055 (CMY-2); test: Potentiation of beta-lactam MIC in beta-lactam resistant clinical isolate; details: read-out: Activity (MIC) of piperacillin alone
Method: as §1, with “MIC. Performance of the assay was monitored by testing aztreonam against laboratory quality control strains in accordance with guidelines of the CLSI.” for “MIC.”
as §2

[2] = system: K. pneumoniae NB29082 (KPC-2); test: as above; details: Klebsiella pneumoniae, read-out: Activity (MIC) of piperacillin alone
Method: as §1, with “MIC. Performance of the assay was monitored by testing aztreonam against laboratory quality control strains in accordance with guidelines of the CLSI.” for “MIC.”
as §2

S. aureus NB01437 (BLA+) = test: as above; details: Staphylococcus aureus, read-out: Activity (MIC) of piperacillin alone
Method: as §1, with “MIC. Performance of the assay was monitored by testing aztreonam against laboratory quality control strains in accordance with guidelines of the CLSI.” for “MIC.”
as §2

[3] = system: K. pneumoniae NB29323 (CTX-M-15, OXA-48, VEB-1); test: as above; details: Klebsiella pneumoniae, read-out: Activity (MIC) of aztreonam alone
Method: as §1, with “MIC. Performance of the assay was monitored by testing aztreonam against laboratory quality control strains in accordance with guidelines of the CLSI.” for “MIC.”
as §2

[4] = system: E. coli ATCC 25922, K. pneumoniae ATCC 43816, P. aeruginosa ATCC 27853; test: Direct antibacterial activity of BLIs, summary of Table A in words; details: BLI alone; statement on Table A
Method: as §1, with “A volume of 10 μL of the drug dilution series was transferred to 96-well assay plates. Assay plates were inoculated with 90 μL of bacterial suspensions and incubated at 35° C. for 20 hrs.” left out, “MIC. Performance of the assay was monitored by testing aztreonam against laboratory quality control strains in accordance with guidelines of the CLSI.” for “MIC.”

[5] = no BLI, read-out: Activity (MIC) of Beta-Lactam 5 alone
[6] = read-out: MIC of ceftazidime alone, no BLI

CN1C[C@@H]2C[C@@H]3CN(C(=O)N3OS(=O)(=O)[O-])[C@@H]2C1=O.[Na+] [Example 2, Sodium (4R,5aS,8aS)-7-methyl-2,8-dioxohexahydro-2H-1,4-methanopyrrolo[3,4-d][1,3]diazepin-3(4H)-yl sulfate]
MIC of piperacillin in combination with the BLI (E. coli (OXA-18); BLI at 2 μg/mL): 4 mg/L

O=C1[C@@H]2[C@@H](C[C@@H]3CN2C(=O)N3OS(=O)(=O)[O-])CN1C1CC1.[Na+] [Example 3, Sodium (4R,5aS,8aS)-7-cyclopropyl-2,8-dioxohexahydro-2H-1,4-methanopyrrolo[3,4-d][1,3]diazepin-3(4H)-yl sulfate]
MIC of piperacillin in combination with the BLI (E. coli (OXA-18); BLI at 2 μg/mL): 4 mg/L

Meropenem
MIC of meropenem alone (E. coli (CTX-M-15); no BLI): ≤0.06 mg/L | MIC of meropenem alone (E. coli (SHV-12); no BLI): ≤0.06 mg/L | MIC of meropenem alone (E. coli (KPC-2); E. coli (KPC-2), no BLI): 1 mg/L | MIC of meropenem alone (E. coli (TEM-10); no BLI): ≤0.06 mg/L | MIC of meropenem alone (E. coli (AmpC); no BLI): ≤0.06 mg/L | MIC of meropenem alone (E. coli (OXA-18); no BLI): ≤0.06 mg/L

O=C(NC1CCNCC1)[C@@H]1CC[C@@H]2CN1C(=O)N2OS(=O)(=O)O [Relebactam]
MIC of piperacillin in combination with the BLI (E. coli (OXA-18); BLI at 2 μg/mL): >32 mg/L

Nc1nc(/C(=N/OC2(C(=O)O)CC2)C(=O)N[C@@H]2C(=O)N(S(=O)(=O)O)[C@@H]2CN2CCOC2=O)cs1 [Beta-Lactam 5]
MIC (E. coli (CTX-M-15); [5]): 0.125 mg/L | MIC (E. coli (SHV-12); [5]): 0.5 mg/L | MIC (E. coli (KPC-2); E. coli (KPC-2), no BLI, read-out: Activity (MIC) of Beta-Lactam 5 alone): 0.25 mg/L | MIC (E. coli (TEM-10); [5]): 2 mg/L | MIC (E. coli (AmpC); [5]): 0.25 mg/L | MIC (E. coli (OXA-18); [5]): 0.5 mg/L

CCN1CCN(C(=O)N[C@@H](C(=O)N[C@@H]2C(=O)N3C2SC(C)(C)[C@@H]3C(=O)O)c2ccccc2)C(=O)C1=O (some centres unmarked) [Piperacillin]
MIC [1]: > 64 mg/L | MIC [2]: > 64 mg/L | MIC (S. aureus NB01437 (BLA+)): 64 mg/L

C[C@H]1[C@H](NC(=O)/C(=N\OC(C)(C)C(=O)O)c2csc(N)n2)C(=O)N1S(=O)(=O)O [Aztreonam]
MIC [3]: > 64 mg/L

O=C1NC[C@@H]2C[C@@H]3CN(C(=O)N3OS(=O)(=O)[O-])[C@H]12.[Na+] [Example 1, Sodium (4R,5aS,8aS)-2,8-dioxohexahydro-2H-1,4-methanopyrrolo[3,4-d][1,3]diazepin-3(4H)-yl sulfate]
Direct antibacterial activity of the BLI, in words [4]: does not exhibit much direct antibiotic activity | MIC of piperacillin in combination with the BLI (E. coli (OXA-18); BLI at 2 μg/mL): 2 mg/L

CC(C)(O/N=C(\C(=O)N[C@@H]1C(=O)N2C(C(=O)O)=C(C[n+]3ccccc3)CS[C@H]12)c1csc(N)n1)C(=O)O [Ceftazidime]
MIC (E. coli (CTX-M-15); [6]): 16 mg/L | MIC (E. coli (SHV-12); [6]): > 64 mg/L | MIC (E. coli (KPC-2); read-out: MIC of ceftazidime alone): 4 mg/L | MIC (E. coli (TEM-10); [6]): > 64 mg/L | MIC (E. coli (AmpC); [6]): 4 mg/L | MIC (E. coli (OXA-18); [6]): > 64 mg/L

O=C1NCC[C@@H]2C[C@@H]3CN(C(=O)N3OS(=O)(=O)[O-])[C@H]12.[Na+] [Example 7, Sodium (4R,5aR,9aS)-2,9-dioxooctahydro-1,4-methanopyrido[3,4-d][1,3]diazepin-3(2H)-yl hydrogen sulfate]
MIC of piperacillin in combination with the BLI (E. coli (AmpC); BLI at 2 μg/mL): 8 mg/L | MIC of piperacillin in combination with the BLI (E. coli (OXA-18); BLI at 2 μg/mL): 8 mg/L

C[C@]1(Cn2ccnn2)[C@H](C(=O)O)N2C(=O)C[C@H]2S1(=O)=O [Tazobactam]
MIC of piperacillin in combination with the BLI (E. coli (OXA-18); BLI at 4 μg/mL): 8 mg/L

NC(=O)[C@@H]1CC[C@@H]2CN1C(=O)N2OS(=O)(=O)O [Avibactam]
Direct antibacterial activity of the BLI, in words [4]: exhibit direct antibacterial activity | MIC of piperacillin in combination with the BLI (E. coli (OXA-18); BLI at 2 μg/mL): 2 mg/L
